Results from publication PMC4764977, “AZD8797 is an allosteric non-competitive modulator of the human CX3CR1 receptor” (Biochemical Journal, 2016).
One block for each molecule: values may come before it.

What was measured:
CX3CR1 [1] = biological target: T1, CX3CR1 (Homo sapiens, UniProt P49238); assay: Equilibrium saturation binding, CHO-hCX3CR1 membranes; parameters: host or cells: CHO-K1; details: GTPγS added (100 μM)
T1 sequence (P49238 1-355): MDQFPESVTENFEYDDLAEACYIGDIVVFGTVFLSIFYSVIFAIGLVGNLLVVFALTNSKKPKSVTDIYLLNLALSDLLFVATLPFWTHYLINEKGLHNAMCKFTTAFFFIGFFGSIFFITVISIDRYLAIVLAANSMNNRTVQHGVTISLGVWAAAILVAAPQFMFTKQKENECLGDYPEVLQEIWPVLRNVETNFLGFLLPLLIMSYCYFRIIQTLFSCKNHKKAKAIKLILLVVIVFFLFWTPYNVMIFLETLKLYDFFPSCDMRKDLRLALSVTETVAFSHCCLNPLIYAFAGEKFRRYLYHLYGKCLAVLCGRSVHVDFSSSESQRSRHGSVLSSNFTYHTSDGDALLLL
Method: Cells were washed in PBS and lysed with an Ultra-Turrax Homogenizer in 50 mM Tris/HCl (pH 7.4) and 1 mM EDTA with Complete™ protease inhibitor (Roche). […] Protein concentration was determined using the BCA method (Thermo Fisher Scientific). […] The filter plate was washed in ice-cold 25 mM HEPES (pH 7.4), 5 mM MgCl2, 1 mM CaCl2 and 500 mM NaCl and dried at 50°C for 1 h. Scintillation cocktail, Optiphase Supermix (PerkinElmer) was added to each well and the radioactivity was measured using a MicroBeta Trilux reader (PerkinElmer). […] The DMSO concentration was held constant at 1%. where Kd is the radioligand dissociation constant. Saturation binding isotherms were analysed by non-linear regression and globally fitted to a hyperbolic one-site binding model taking into account both NSB and total binding to calculate the total receptor number (Bmax) and radioligand dissociation constant (Kd): […] NSB=NS·X+Background, where NS is the concentration-dependent NSB. To visualize the manner of binding of CX3CL1 and AZD8797, a diagnostic affinity ratio plot designed to compare strictly competitive behaviour with allosteric interactions was used. […] For single site competitive interactions, the resulting linear plot has the slope of 1.0. For allosteric but competitive interactions, the slope will start at 1.0 but progressively deviate from unity, eventually reaching a limit governed by the allosteric ternary complex model co-operativity factor α [21, 22].

CX3CR1 [2] = biological target: T1, CX3CR1; assay: 125I-CX3CL1 kinetic radioligand binding, CHO-hCX3CR1 membranes; parameters: host or cells: CHO-K1
Method: Incubation times ranged from 2.5 min to 4 h. For the association experiments, the radioligand data were fitted to the following monophasic exponential association equation and the association rate (kon) was calculated using the added amounts of radioligand (L) and dissociation rate (koff) as constants. koff was measured in separate dissociation experiments. The dissociation data were fitted to the monophasic exponential decay equation: where Y0 is the binding (cpm) at time zero, X is the time and NS is the (non-specific) binding at infinite times. […] Multiple compound dissociation data were fitted to the biphasic exponential decay equation: […]

CX3CR1 [3] = biological target: T2, CX3CR1 (Homo sapiens, UniProt P49238); assay: 125I-CX3CL1 saturation radioligand binding (CHO-hCX3CR1 membranes)
T2 chain: T1 sequence (P49238 1-355)

CX3CR1 [4] = biological target: T2, CX3CR1; assay: 125I-CX3CL1 competition radioligand binding (CHO-hCX3CR1 membranes)
[5] = co-adding 100 μM GTPγS + 100 nM CX3CL1, two-phase model, n=2

Effect on [3H]AZD8797 and 125I-CX3CL1 equilibrium saturation binding (CX3CR1 [1]): no effect
k1off of 125I-CX3CL1 dissociation (CX3CR1 [2]; [5]): 0.55 min⁻¹
k2off of 125I-CX3CL1 dissociation (CX3CR1 [2]; [5]): 0.0084 min⁻¹
Effect on 125I-CX3CL1 association rate (kon) (CX3CR1 [2]; results not shown): no effect
Effect on maximal binding of 125I-CX3CL1 in association experiments (CX3CR1 [2]; results not shown): no effect
Molecule: Nc1nc2c(ncn2[C@@H]2O[C@H](COP(=O)(O)OP(=O)(O)OP(O)(O)=S)[C@@H](O)[C@H]2O)c(=O)[nH]1 [GTPγS, guanosine 5′-[γ-thio]triphosphate, reference compound]

Kd (CX3CR1 [3]): 0.19 nM
B1: CX3CL1 (fractalkine) chemokine domain (protein)
chain: LAGQHHGVTKCNITCSKMTSKIPVALLIHYQQNQASCGKRAIILETRQHRLFCADPKEQWVKDAMQHLDRQAAALTRNGGTF
modifications: 125I-labelled CX3CL1

Ki (CX3CR1 [4]): 0.29 nM
B2: CX3CL1 (fractalkine) chemokine domain (protein)
chain: B1 chain
